Series [1] is described as follows: Dermal toxicity of granular compositions (Example 2, Table I). As to conditions: rabbit, in vivo, topical or ocular, male albino rabbits, 24 h contact, 14 days observation, read-out: LD50 in mg/kg Body Weight. The source says:
Dermal toxicity of granular compositions of the present invention as compared to conventional granular compositions containing the same pesticide, using male albino rabbits as test animal.
1. Five male albino rabbits weighing approximately 2.2 to 3.5 kilograms are selected for each dosage level. The hair is shaved from the entire trunk.
2. Saran tubing or "Vinylite" film, VU 1900, 12 inches wide, 0.04 millimeters thick and of suitable length to fit around the rabbit.
3. One felt cloth bandage measuring approximately 9×18 inches.
4. Four pieces of 11/2 inches adhesive tape approximately 14 inches long.
1. The granular composition to be tested is placed in the center of the plastic film and is moistened with water.
2. The rabbits underside is moistened with water and the animals placed belly down on the material. The plastic film is then bought up and around the animal and secured at each end with strips of adhesive tape.
3. The felt cloth is then placed under the belly and brought up and around the animal and secured to the body with the remaining two strips of adhesive tape.
1. The animal is placed on the plastic film and is wrapped and the film secured with adhesive tape.
2. The test material is then injected under the plastic with an appropriate size needle and syringe.
3. […]
By the above procedure the dermal toxicity of the granular compositions prepared in Example 1 is determined. […]

In the next series the test system is insects and nematodes. As to conditions: food and fodder crops; cited from earlier work.
For a further series, the system named is mammals. As to conditions: ingestion, inhalation or dermal absorption; cited from earlier work.

Consider `CCOP(=S)(OCC)SCSC(C)(C)C`, for which, in series [1], the LD50 at 336 h lay in the range of 1 to 1.4 mg/kg. Also, the “control of a broad spectrum of insects and nematodes” value in the series on insects and nematodes is “highly effective”. Besides, the “toxicity to mammals when introduced into the mammalian circulatory system” value with mammals was “extremely toxic to mammals”.

The values are drawn from patent US4059700A, “Dermal toxicity of solid compositions containing a montmorillonite type of clay and an organophosphorus pesticide” (priority 1976, dated 1977).
